Usually Ki stands for a dissociation constant, usually derived from enzyme kinetics or from competition with a known ligand.

The target in this assay is Human immunodeficiency virus type 1 protease (Human immunodeficiency virus 1, UniProt Q72874). Description: Inhibition of recombinant HIV-1 protease.
Take `C[C@H](N)C(=O)N[C@@H](C)C(=O)N[C@@H](Cc1ccccc1)[C@@H](O)CCC(=O)NC(c1ccccc1)c1cc2ccccc2[nH]1` (some centres undefined): the Ki is 200 nM. Then `NC(=O)C[C@H](NC(=O)c1ccc2ccccc2n1)C(=O)NC(Cc1ccccc1)[C@@H](O)CCC(=O)NC(c1cccc(C(F)(F)F)c1)c1cc2ccccc2[nH]1` (some centres undefined), with 33 nM; and `NC(=O)C[C@H](NC(=O)c1ccc2ccccc2n1)C(=O)NC(Cc1ccccc1)[C@@H](O)CCC(=O)NC(c1ccccc1)c1cc2ccccc2[nH]1` (some centres undefined), with 43 nM; and `NC(=O)C[C@H](NC(=O)c1ccc2ccccc2n1)C(=O)NC(Cc1ccccc1)[C@@H](O)C[C@@H](Cc1ccccc1)C(=O)NC(c1ccccc1)c1cc2ccccc2[nH]1` (some centres undefined), with 1280 nM. Then `NC(=O)C[C@H](NC(=O)c1ccc2ccccc2n1)C(=O)NC(Cc1ccccc1)[C@@H](O)CCC(=O)NC(c1ccccc1)c1nc2ccccc2[nH]1` (some centres undefined), with 480 nM; and `NC(=O)C[C@H](NC(=O)c1ccc2ccccc2n1)C(=O)NC(Cc1ccccc1)[C@@H](O)CCC(=O)NC(c1cc2ccccc2[nH]1)C1CCCCC1` (some centres undefined), with 180 nM.

`COC(=O)[C@@H](CC(=O)[C@@H](NC(=O)CC[C@H](O)[C@H](Cc1ccccc1)NC(=O)[C@H](C)NC[C@H](C)N)C(C)C)C(C)C`: the Ki turned out to be 18 nM.

As for `Cc1cccc(C(NC(=O)CC[C@H](O)C(Cc2ccccc2)NC(=O)[C@H](CC(N)=O)NC(=O)c2ccc3ccccc3n2)c2cc3ccccc3[nH]2)c1` (some centres undefined), the Ki is 39 nM. Then `CC(C)CC(=O)N[C@H](C(=O)N[C@H](C(=O)N[C@@H](CC(C)C)[C@@H](O)CC(=O)N[C@@H](C)C(=O)N[C@@H](CC(C)C)[C@@H](O)CC(=O)O)C(C)C)C(C)C` [PEPSTATIN], with 3100 nM.
